# Paper PMC8302598, “Rapid discovery of self-assembling peptides with one-bead one-compound peptide library” (Nature Communications, 2021)
# “And” between values parts separate entries of the source, which are not always exact repeats. Identical values can stand only once. “Also recorded” adds a separate entry of the source.
# Tests used:
# HeLa cells [1] = experiment: Cell uptake pathway analysis (4 °C and endocytosis inhibitors); type: cell-based; conditions: for Cell uptake in the presence of amiloride and M-β-CD: 50 μM peptide; for Cell uptake in the presence of amiloride and M-β-CD / Cell uptake mechanism: amiloride 2 mM, M-β-CD 5 mM; for Cell uptake at 4 °C: FITC-labeled nano-assembly (3% labeled), 4 °C vs 37 °C; for Cell uptake mechanism: 50 μM, 37 or 4 °C, chlorpromazine 50 μM, CLSM, n=3
# Experimental: Finally, we examined the biological effects and cellular distribution of the eight self-assembling peptides on HeLa cells. […] In order to observe the nanomaterials under fluorescent microscopy, each peptide preparation was spiked with 3% of the same peptide N-terminally labeled with FITC, and then added to HeLa cells at a final concentration of 40 μM. […] After 4 h of incubation with the peptide assemblies, the cells were observed under a fluorescent microscope (Figs. 4c, d and Supplementary 22). […] It is important to note that LDFPI nanoparticle was small (8 nm diameter) even after 4 h incubation. Its small size may in part explain its ability to pass through the nuclear pore complexes[32],[33]. […] To evaluate the cell uptake mechanism of peptide assemblies (YFTEF, ISDNL, and FGFDP) into the cytoplasm, we treated the cells at 4 °C or with various endocytosis inhibitors (Supplementary Fig. 23). […]
# Supplementary Figure 23 . Cell uptake pathway analysis for FITC-labeled pentapeptide assemblies YFTEF, ISDNL and […]. a) CLSM images of HeLa cells incubated with pentapeptides (50 μ M ) at di fferent temperatures (37 or 4 °C) and in the presence of various endocytosis inhibitors, such as amiloride (2 mM), M-β-CD (5 mM), and chlorpromazine (50 μM). The scale bar is 10 μm. b) Relevant quantitative analysis of images from ‘a’. 3% of the assembled peptides was N-terminally labeled with FITC, E rror ba rs represent Standard Deviation (n=3). […]
# To elucidate the cell uptake pathways of pentapeptides, we quantified the fluorescence intensity of the HeLa cells after incubation with FITC-labeled nano-assembly of YFTEF, ISDNL, FAGFT, FGFDP, at 37 and 4 °C, respectively (3% of the peptide assembly were N-terminally labeled with FITC for tracking). There were nearly no uptake of pentapeptides by HeLa cells at 4 °C, which is consistent with mechanism of cell uptake by endocytosis. We have also examined the effects of cell uptake by various endocytosis inhibitors: amiloride (2 mM, inhibitor of endocytosis), M-β-CD (5 mM, inhibitor of caveolae-dependent endocytosis), and chlorpromazine (50 μM, inhibitor of clathrin-dependent endocytosis).
# (1 picture or pasted object on this page, not shown here)
# Figure R11. Cell uptake pathway detection. a) CLSM images of HeLa cells incubated with pentapeptides (50 μM) at different temperatures (37 or 4 °C) and in the presence of various endocytosis inhibitors, such as amiloride (2 mM), M-13-CD (5 mM), and chlorpromazine(50 μM), respectively. The scale bar is 10 μm. b) Relevant quantitative analysis in ‘a’. […]
# [2] = Turbidity test (transmittance spectra); type: physicochemical; conditions: 20 μM peptide in water
# Experimental: To further confirm the peptide assembling in water, the solutions of pentapeptide were diluted to 20 μM for turbidity test.
# [3] = Appearance and TEM of 30 mM peptide in water; type: physicochemical; conditions: for Nanostructure under TEM: 30 mM in H2O; for Appearance of peptide in water: 30 mM in water, sonicated 3 min
# Experimental: To further characterize these self-assembling peptides, we selected two positive peptides (FFVDF and YFTEF) and a negative control peptide (PFTTR) for the following studies: Fourier transform infrared (FT-IR) spectroscopy, UV−Vis spectra, and transmission electron microscopy (TEM).
# Pentapeptides monomers were dissolved in DMSO at a concentration of 5.0 mM, followed by quick injection into water at a volume ratio of 1:99 for DMSO and H2O to obtain the nanomaterials solution (50 μM). For 30 mM pentapeptide solution, the pentapeptide was dissolved in water and sonicated for 3 min.
# The pentapeptide solution with the concentration of 20 μM (10 μL) was placed dropwise onto a copper mesh for 5 min, then most of the liquid was removed through a filter paper. Ten microliters of uranyl acetate solution were employed to stain the samples for 5 min, followed by drying the spare liquid with the filter. Finally, the copper mesh was washed with 10 μL of deionized water, which was blotted after staining and drying at room temperature. All of the samples were observed by TEM (Tecnai G2 20 S-TWIN) at an accelerating voltage of 200 kV.
# HeLa cells [4] = experiment: Time-dependent co-localization of FITC-labeled peptides with lysosomes (CLSM); type: cell-based; conditions: 50 μM; for Pearson correlation coefficient, peptide vs lysosomes, 2 h: peptide for 2 h; for Pearson correlation coefficient, peptide vs lysosomes, 4 h: peptide for 2 h and DMEM for 2 h; for Pearson correlation coefficient, peptide vs lysosomes, 8 h: peptide for 2 h and DMEM for 6 h
# Experimental: Supplementary Figure 24. a) Time-dependent (2, 4, 8 h) CLSM images for monitoring and quantitatively analyzing uptake of fluorescent peptide assemblies (YFTEF, ISDNL, and FGFDP at 50 μM) by HeLa cells. The scale bar is 10 μm. b) Corresponding colocalization analysis of images from ‘a’. […]
# Regarding the entrance of nanoparticles into HeLa cells, we have carried out additional experiments to address reviewer’s concern. To track the biodistribution of these peptides in the cytosol, peptides YFTEF, ISDNL and FGFDP were labeled by addition of FITC-labeled peptides (FITC-YFTEF, FITC-ISDNL, FITC-FGFDP) at 3% level, respectively, prior to self-assembly, and then incubated with HeLa cells for 2 h. The incubated cells were then washed with PBS three times and further incubated with Dulbecco's modified eagle medium without peptide for another 2 and 6 h. The lysosomes of the cells were stained with red fluorescence after 2 (peptide for 2 h), 4 (peptide for 2 h and DMEM for 2 h), or 8 h (peptide for 2 h and DMEM for 6 h) incubation, followed by CLSM observation.
# For ISDNL, good co-localization (Pearson correlation coefficient: 0.92) between peptides and lysosomes […]
# lysosomes (colocalization from 0.92 at 2 h, to 0.76 at 4 h and 0.69 at 8 h).
# ISDNL based nanoparticles could escape from lysosomes over time.
# For YFTEF, good co-localization (yellow fluorescence) between YFTEF (green fluorescence) and with […]
# The co-localization efficiency for YFTEF and lysosomes remained high over time (4 h, 0.93; 8 h, 0.91).
# For FGFDP, the Pearson correlation coefficient of lysosome was determined to be about 0.7 for 2 (0.74), 4 (0.79), 8 h (0.72). It seems that FGFDP might have escaped from lysosomes prior to the 2 h time point.
# In order to confirm this hypothesis, we did the co-localization study at earlier time points: 30 min to 1 h.
# The results reveal that FGFDP increased the distribution in the lysosome from 30 min (Pearson correlation coefficient: 0.59) to 1 h (Pearson correlation coefficient: 0.94), and then decreased to 0.74 at 2h. These […]
# escape from lysosomes sometime between 1-2 h.
# [5] = FITC-labeled peptide/Lyso-Tracker co-localization
Substance,Cell uptake in the presence of amiloride and M-β-CD (HeLa cells [1]),Cell uptake at 4 °C (HeLa cells [1]),Cell uptake mechanism (HeLa cells [1]),Transmittance at 400 nm [2] [%],Nanostructure under TEM [3],Appearance of peptide in water [3],"Pearson correlation coefficient, peptide vs lysosomes, 2 h (HeLa cells [4]; 3% FITC-labeled peptide)",Retention in lysosomes (HeLa cells [4]; [5]),"Pearson correlation coefficient, peptide vs lysosomes, 4 h (HeLa cells [4])","Pearson correlation coefficient, peptide vs lysosomes, 8 h (HeLa cells [4])","Pearson correlation coefficient, peptide vs lysosomes, 30 min (HeLa cells [4]; 3% FITC-labeled peptide, 30 min)","Pearson correlation coefficient, peptide vs lysosomes, 1 h (HeLa cells [4]; 3% FITC-labeled peptide, 1 h)",Time of escape from lysosomes (HeLa cells [4]; [5])
FAGFT [self-assembling pentapeptide identified from OBOC library],significantly decreased,nearly no uptake,,,,,,,,,,,
YFTEF [self-assembling pentapeptide identified from OBOC library],,nearly no uptake,clathrin dependent endocytosis,98,entangled fibrous network,milky hydrogel,0.92,remained in lysosomes at 8 h; also recorded: remained in lysosomes for 8 h without obvious escape,0.93,0.91,,,
ISDNL [self-assembling pentapeptide identified from OBOC library],significantly decreased,nearly no uptake,caveolae-dependent endocytosis and micropinocytosis,,,,0.92,,0.76,0.69,,,
"FFVDF [self-assembling pentapeptide identified from OBOC library, forms nanofibers]",,,,88,entangled fibrous network,milky white solution,,,,,,,
FGFDP [self-assembling pentapeptide identified from OBOC library],,nearly no uptake,both caveolae-dependent and clathrin-dependent endocytosis,,,,0.74,,0.79,0.72,0.59,0.94,1 to 2 h and ~1.5 h
